According to US11834453B2, “Substituted pyrimido[5,4-d]pyrimidines as HER2 inhibitors” (Array BioPharma Inc., priority 2020, dated 2023):
Like-named read-outs stand apart in the source and are kept apart here.

What was measured:
[1] = molecular target: ErbB2 with Exon 20 YVMA insertion (HER2-YVMA) (Homo sapiens (Human), UniProt P04626, INS775YVMA); experiment: Cellular phosphorylation assay, constitutive ErbB2 phosphorylation (Y1196) in engineered NIH 3T3 cells, Assay 4; format: cell-based
In short: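 Engineered NIH 3T3 cells expressing HER2-YVMA treated with compounds 1 h at 37 °C, then formaldehyde-fixed and methanol-permeabilized. pErbB2 Y1196 detected by in-cell infrared immunofluorescence, normalized to GAPDH. IC50 from the normalized curves.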

EGFR = EGFR (Homo sapiens (Human), UniProt P00533); experiment: ErbB enzyme assay (CisBio HTRF KinEASE-TK), Assay 3; format: biochemical
In short: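 Kinase incubated 30 min at 22 °C with 250 nM biotinylated TK substrate, 1 mM ATP and serially diluted compound in 25 mM HEPES pH 7.4, 10 mM MgCl2, 0.01% Triton X-100, 2% DMSO. Phosphorylation read by HTRF (Sa-XL665/TK-Ab-Cryptate); IC50 from 4-parameter fit of percent of control.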

MDR1 (P-gp) = MDR1 (P-gp) (Homo sapiens (Human), UniProt P08183); experiment: MDR1 transfected LLC-PK1 permeability/efflux, Assay 6; settings: for efflux ratio at 2 h, 1 μM: pig
BCRP = BCRP (Homo sapiens (Human), UniProt Q9UNQ0); experiment: BCRP transfected MDCKII canine Mdr1 knockout permeability/efflux, Assay 9; settings: for efflux ratio at 2 h, 1 μM: dog
EGFR wild type (EGFR WT) = EGFR wild type (EGFR WT) (Homo sapiens (Human), UniProt P00533); experiment: Cellular phosphorylation assay, EGF-stimulated EGFR phosphorylation in engineered NIH 3T3 cells, Phospho-EGFR DuoSet IC ELISA, Assay 5; format: cell-based
In short: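 NIH 3T3 cells expressing EGFR WT (20,000/well, attached overnight) were exposed to serially diluted compound for 1 h at 37 °C, then stimulated with 100 ng/ml rEGF for 10 min. Phospho-EGFR in lysates measured by sandwich ELISA optical density; IC50 from curves.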

[2] = molecular target: ErbB2 insYVMA (HER2-YVMA, SEQ ID NO: 2) (Homo sapiens, UniProt P04626, INS775YVMA/P1170A); experiment: biochemical; settings: ErbB2 insYVMA enzyme assay
ErbB2 WT = ErbB2 WT (Homo sapiens (Human), UniProt P04626); experiment: ErbB enzyme assay (CisBio HTRF KinEASE-TK), Assay 2; format: biochemical
In short: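 ErbB2 phosphorylates 250 nM biotin-TK substrate at 1 mM ATP in 25 mM HEPES pH 7.4, 10 mM MgCl2, 0.01% Triton X-100 and 2% DMSO, for 30 min at 22 °C. Product is detected by HTRF with Sa-XL665 and TK-Ab-Cryptate. Percent of control is set by DMSO-only wells and pre-quenched wells.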

[3] = LLC-PK1, Assay 6 Pe Ratio, efflux ratio Papp(B-A)/Papp(A-B), MDR1 transfected LLC-PK1
[4] = Assay 9 Pe Ratio, efflux ratio Papp(B-A)/Papp(A-B), BCRP transfected MDCKII canine Mdr1 knockout

Sequence of ErbB2 insYVMA (HER2-YVMA, SEQ ID NO: 2) (P04626 with tags, fused parts or gaps INS775YVMA/P1170A limits assumed): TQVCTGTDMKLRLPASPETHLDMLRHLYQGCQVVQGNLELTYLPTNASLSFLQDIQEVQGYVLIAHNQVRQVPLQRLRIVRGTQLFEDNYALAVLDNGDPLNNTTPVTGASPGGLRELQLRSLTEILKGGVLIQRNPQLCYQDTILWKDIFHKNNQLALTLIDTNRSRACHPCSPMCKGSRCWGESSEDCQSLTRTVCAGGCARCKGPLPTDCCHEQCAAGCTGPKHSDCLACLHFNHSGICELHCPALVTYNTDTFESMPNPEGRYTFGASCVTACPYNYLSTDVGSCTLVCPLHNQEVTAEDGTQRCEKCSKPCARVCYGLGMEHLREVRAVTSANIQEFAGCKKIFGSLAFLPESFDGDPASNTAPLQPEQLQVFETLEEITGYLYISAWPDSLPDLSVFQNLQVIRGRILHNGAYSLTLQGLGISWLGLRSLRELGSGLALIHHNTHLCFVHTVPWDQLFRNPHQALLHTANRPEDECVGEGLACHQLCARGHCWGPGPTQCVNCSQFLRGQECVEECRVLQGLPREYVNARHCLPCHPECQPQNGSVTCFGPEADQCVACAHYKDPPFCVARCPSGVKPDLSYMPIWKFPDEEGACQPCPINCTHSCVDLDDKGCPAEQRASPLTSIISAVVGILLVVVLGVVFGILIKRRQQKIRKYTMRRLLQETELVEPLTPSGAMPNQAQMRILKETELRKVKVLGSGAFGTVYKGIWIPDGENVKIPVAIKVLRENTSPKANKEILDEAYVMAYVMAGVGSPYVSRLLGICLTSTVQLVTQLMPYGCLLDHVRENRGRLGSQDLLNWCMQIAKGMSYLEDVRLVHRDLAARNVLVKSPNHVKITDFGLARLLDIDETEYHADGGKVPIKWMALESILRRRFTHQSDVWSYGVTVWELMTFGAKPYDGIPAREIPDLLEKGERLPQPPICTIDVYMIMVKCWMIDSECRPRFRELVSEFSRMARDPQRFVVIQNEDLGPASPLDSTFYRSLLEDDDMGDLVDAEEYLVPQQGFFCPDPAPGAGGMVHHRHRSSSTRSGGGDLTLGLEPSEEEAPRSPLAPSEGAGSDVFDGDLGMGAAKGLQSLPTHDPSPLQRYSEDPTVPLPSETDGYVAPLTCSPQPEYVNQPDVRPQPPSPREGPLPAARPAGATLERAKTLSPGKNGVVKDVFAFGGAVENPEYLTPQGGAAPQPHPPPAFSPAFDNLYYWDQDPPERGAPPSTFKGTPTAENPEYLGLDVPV
Sequence of ErbB2 with Exon 20 YVMA insertion (HER2-YVMA) (P04626 other isoform, or with tags, fused parts or gaps ins YVMA behind 775): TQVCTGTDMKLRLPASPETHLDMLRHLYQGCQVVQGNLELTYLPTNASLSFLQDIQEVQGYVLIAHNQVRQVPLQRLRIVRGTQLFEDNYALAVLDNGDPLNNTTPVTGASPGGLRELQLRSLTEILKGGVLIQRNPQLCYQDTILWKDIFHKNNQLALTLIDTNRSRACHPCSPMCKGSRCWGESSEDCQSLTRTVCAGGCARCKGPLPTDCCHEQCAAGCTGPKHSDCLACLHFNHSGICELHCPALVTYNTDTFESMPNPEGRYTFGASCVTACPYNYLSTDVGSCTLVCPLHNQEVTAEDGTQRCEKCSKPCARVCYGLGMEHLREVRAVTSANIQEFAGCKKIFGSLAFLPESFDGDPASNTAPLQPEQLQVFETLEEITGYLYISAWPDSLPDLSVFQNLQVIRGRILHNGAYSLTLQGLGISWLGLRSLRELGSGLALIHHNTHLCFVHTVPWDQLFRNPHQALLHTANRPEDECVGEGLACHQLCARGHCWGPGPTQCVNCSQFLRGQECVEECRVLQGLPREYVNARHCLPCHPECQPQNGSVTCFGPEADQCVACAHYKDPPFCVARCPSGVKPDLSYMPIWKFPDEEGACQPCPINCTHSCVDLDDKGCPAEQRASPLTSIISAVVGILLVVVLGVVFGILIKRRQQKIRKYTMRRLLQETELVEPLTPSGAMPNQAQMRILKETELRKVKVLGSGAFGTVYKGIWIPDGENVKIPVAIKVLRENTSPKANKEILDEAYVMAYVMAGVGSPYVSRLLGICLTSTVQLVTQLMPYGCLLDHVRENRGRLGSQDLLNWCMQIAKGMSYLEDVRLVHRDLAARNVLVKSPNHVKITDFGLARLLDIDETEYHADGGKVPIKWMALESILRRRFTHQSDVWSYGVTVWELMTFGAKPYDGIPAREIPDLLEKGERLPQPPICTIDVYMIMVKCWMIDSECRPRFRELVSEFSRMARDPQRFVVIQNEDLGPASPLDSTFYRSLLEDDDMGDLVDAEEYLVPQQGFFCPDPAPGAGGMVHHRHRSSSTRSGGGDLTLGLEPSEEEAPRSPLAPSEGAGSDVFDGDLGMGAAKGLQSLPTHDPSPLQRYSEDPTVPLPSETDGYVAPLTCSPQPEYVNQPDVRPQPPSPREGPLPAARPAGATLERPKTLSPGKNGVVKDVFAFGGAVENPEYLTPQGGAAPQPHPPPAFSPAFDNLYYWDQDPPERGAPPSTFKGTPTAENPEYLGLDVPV
Sequence of EGFR wild type (EGFR WT) (P00533 25-1210): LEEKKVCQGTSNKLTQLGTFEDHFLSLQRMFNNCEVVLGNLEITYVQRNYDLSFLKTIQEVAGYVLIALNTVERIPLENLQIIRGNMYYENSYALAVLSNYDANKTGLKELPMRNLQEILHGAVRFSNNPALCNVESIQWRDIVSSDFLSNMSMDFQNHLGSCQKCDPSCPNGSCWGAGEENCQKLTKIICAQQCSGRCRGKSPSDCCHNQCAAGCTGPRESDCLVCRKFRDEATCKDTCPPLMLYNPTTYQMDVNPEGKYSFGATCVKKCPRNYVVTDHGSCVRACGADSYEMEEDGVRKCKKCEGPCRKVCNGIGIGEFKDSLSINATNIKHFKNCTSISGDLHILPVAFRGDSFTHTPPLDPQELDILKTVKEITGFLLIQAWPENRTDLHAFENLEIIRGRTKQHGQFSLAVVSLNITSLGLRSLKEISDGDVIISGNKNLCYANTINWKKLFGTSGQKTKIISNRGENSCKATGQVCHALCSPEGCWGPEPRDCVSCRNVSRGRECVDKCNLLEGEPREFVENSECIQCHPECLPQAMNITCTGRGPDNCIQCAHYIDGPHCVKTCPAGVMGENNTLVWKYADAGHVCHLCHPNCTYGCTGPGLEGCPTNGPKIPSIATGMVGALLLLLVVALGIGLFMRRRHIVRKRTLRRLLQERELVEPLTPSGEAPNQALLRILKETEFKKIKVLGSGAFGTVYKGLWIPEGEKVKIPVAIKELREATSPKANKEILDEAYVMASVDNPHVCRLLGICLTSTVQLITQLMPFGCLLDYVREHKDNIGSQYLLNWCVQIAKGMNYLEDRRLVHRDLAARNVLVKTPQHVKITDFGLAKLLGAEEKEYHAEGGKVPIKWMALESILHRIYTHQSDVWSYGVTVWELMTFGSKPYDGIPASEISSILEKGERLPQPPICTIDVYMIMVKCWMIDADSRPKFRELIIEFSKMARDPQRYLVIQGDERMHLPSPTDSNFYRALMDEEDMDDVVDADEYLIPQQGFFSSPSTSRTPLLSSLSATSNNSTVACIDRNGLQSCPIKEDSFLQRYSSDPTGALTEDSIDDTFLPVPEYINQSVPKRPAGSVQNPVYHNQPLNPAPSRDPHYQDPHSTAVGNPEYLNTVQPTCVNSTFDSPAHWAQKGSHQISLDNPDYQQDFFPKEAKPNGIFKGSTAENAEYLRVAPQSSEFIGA
Sequence of EGFR (P00533 25-1210): as above

| Compound | IC50 [1] [nM] | IC50 (EGFR) [nM] | efflux ratio at 2 h, 1 μM (MDR1 (P-gp); [3]) | efflux ratio at 2 h, 1 μM (BCRP; [4]) | IC50 (EGFR wild type (EGFR WT)) [nM] | IC50 ([2]; read-out: Assay 1 IC50) [nM] | IC50 (ErbB2 WT) [nM] | Assay 6 Pe Ratio (MDR1 (P-gp); efflux ratio Papp(B-A)/Papp(A-B), MDR1 transfected LLC-PK1) | Assay 9 Pe Ratio (BCRP; efflux ratio Papp(B-A)/Papp(A-B), BCRP transfected MDCKII canine Mdr1 knockout) | IC50 ([2]; Assay 1 IC50 (nM)) [nM] | efflux ratio at 2 h, 1 μM (MDR1 (P-gp); LLC-PK1) | efflux ratio at 2 h, 1 μM (BCRP) |
| --- | --- | --- | --- | --- | --- | --- | --- | --- | --- | --- | --- | --- |
| Cc1cc(Nc2ncnc3cnc(N4CCO[C@H]5C[C@H]54)nc23)ccc1Oc1ccc2c(c1)ncn2C (single isomer, unassigned) [Example 60a] | 16 | 8280 | 1.8 | 1.2 | ≥ 5000 | 18.4 | 28.9 |  |  |  |  |  |
| Cc1cc(Nc2ncnc3cnc(N4CCO[C@H]5C[C@H]54)nc23)ccc1Oc1ccc2c(c1)ncn2C (single isomer, unassigned) [Example 60b] | 17.9 | 5680 |  |  | ≥ 5000 | 16.1 | 18.7 | 1.9 | 1.4 |  |  |  |
| Cc1cc(Nc2ncnc3cnc(N(C)C4CC4)nc23)ccc1Oc1ccc2c(c1)ncn2C [Example 31, N2-cyclopropyl-N2-methyl-N8-(3-methyl-4-((1-methyl-1H-benzo[d]imidazol-5-yl)oxy)phenyl)pyrimido[5,4-d]pyrimidine-2,8-diamine] | 23.3 | ≥ 10000 | 1.3 | 1.4 | ≥ 5000 | 117 | 158 |  |  |  |  |  |
| CON1CCN(c2ncc3ncnc(Nc4ccc(Oc5ccc6c(c5)ncn6C)c(C)c4)c3n2)CC1 [Example 35, 6-(4-methoxypiperazin-1-yl)-N-(3-methyl-4-((1-methyl-1H-benzo[d]imidazol-5-yl)oxy)phenyl)pyrimido[5,4-d]pyrimidin-4-amine] | 7.8 | ≥ 10000 | 1.3 | 1.2 | ≥ 5000 | 33.5 | 94.2 |  |  |  |  |  |
| Cc1cc(Nc2ncnc3cnc(N4CCC4)nc23)ccc1Oc1ccc2c(c1)ncn2C [Example 36, 6-(azetidin-1-yl)-N-(3-methyl-4-((1-methyl-1H-benzo[d]imidazol-5-yl)oxy)phenyl)pyrimido[5,4-d]pyrimidin-4-amine] | 41.6 | 9000 | 1.2 | 0.9 | ≥ 5000 | 26.3 | 64.6 |  |  |  |  |  |
| Cc1cc(Nc2ncnc3cnc(-c4ccncc4)nc23)ccc1Oc1ccc2c(c1)ncn2C [Example 47, N-(3-methyl-4-((1-methyl-1H-benzo[d]imidazol-5-yl)oxy)phenyl)-6-(pyridin-4-yl)pyrimido[5,4-d]pyrimidin-4-amine bis(2,2,2-trifluoroacetate)] | 13.4 | ≥ 10000 | 1.1 | 2.3 | ≥ 5000 | 59.6 | 91 |  |  |  |  |  |
| Cc1cc(Nc2ncnc3cnc(-c4cnco4)nc23)ccc1Oc1ccc2c(c1)ncn2C [Example 48, N-(3-methyl-4-((1-methyl-1H-benzo[d]imidazol-5-yl)oxy)phenyl)-6-(oxazol-5-yl)pyrimido[5,4-d]pyrimidin-4-amine] | 48.5 | ≥ 10000 | 1.6 | 7.2 | ≥ 5000 | 56.6 | 189 |  |  |  |  |  |
| Cc1cc(Nc2ncnc3cnc(N4C[C@@H]5CC[C@H]4CO5)nc23)ccc1Oc1ccc2c(c1)ncn2C [Example 53, 6-((1S,4S)-2-oxa-5-azabicyclo[2.2.2]octan-5-yl)-N-(3-methyl-4-((1-methyl-1H-benzo[d]imidazol-5-yl)oxy)phenyl)pyrimido[5,4-d]pyrimidin-4-amine] | 42.7 | ≥ 10000 | 1.7 | 1.6 | ≥ 5000 | 25 | 75.2 |  |  |  |  |  |
| Cc1cc(Nc2ncnc3cnc(N4C[C@H]5CC[C@@H]4CO5)nc23)ccc1Oc1ccc2c(c1)ncn2C [Example 54, 6-((1R,4R)-2-oxa-5-azabicyclo[2.2.2]octan-5-yl)-N-(3-methyl-4-((1-methyl-1H-benzo[d]imidazol-5-yl)oxy)phenyl)pyrimido[5,4-d]pyrimidin-4-amine] | 17.8 | 3430 | 1.4 | 1.1 | ≥ 5000 | 5.6 | 31.3 |  |  |  |  |  |
| Cc1cc(Nc2ncnc3cnc(N(C)CC(F)F)nc23)ccc1Oc1ccc2c(c1)ncn2C [Example 57, N2-(2,2-difluoroethyl)-N2-methyl-N8-(3-methyl-4-((1-methyl-1H-benzo[d]imidazol-5-yl)oxy)phenyl)pyrimido[5,4-d]pyrimidine-2,8-diamine] | 9.4 | 6630 | 1.1 | 1.4 | ≥ 5000 | 30.2 | 37.7 |  |  |  |  |  |
| Cc1cc(Nc2ncnc3cnc(N4C5CCC4COC5)nc23)ccc1Oc1ccc2c(c1)ncn2C [Example 59, 6-(3-oxa-8-azabicyclo[3.2.1]octan-8-yl)-N-(3-methyl-4-((1-methyl-1H-benzo[d]imidazol-5-yl)oxy)phenyl)pyrimido[5,4-d]pyrimidin-4-amine] | 23.5 | ≥ 10000 | 2 | 7.4 | ≥ 5000 | 29.7 | 44.3 |  |  |  |  |  |
| [2H]C([2H])([2H])Nc1ncc2ncnc(Nc3ccc(Oc4ccc5c(c4)ncn5C)c(C)c3)c2n1 [Example 65, N2-(methyl-d3)-N8-(3-methyl-4-((1-methyl-1H-benzo[d]imidazol-5-yl)oxy)phenyl)pyrimido[5,4-d]pyrimidine-2,8-diamine] | 8.8 | 3000 | 1.6 | 1.9 | ≥ 5000 | 8.6 | 23 |  |  |  |  |  |
| [2H]c1nc(Nc2ccc(Oc3ccc4c(c3)ncn4C)c(C)c2)c2nc(N3CCOCC3)nc([2H])c2n1 [Example 68, N-(3-methyl-4-((1-methyl-1H-benzo[d]imidazol-5-yl)oxy)phenyl)-6-morpholinopyrimido[5,4-d]pyrimidin-2,8-d2-4-amine] | 10.7 | 8230 | 1.8 | 0.9 | ≥ 5000 | 10.2 | 16.3 |  |  |  |  |  |
| Cc1cc(Nc2ncnc3cnc(N4CCOCC4)nc23)ccc1Oc1cc(F)c2c(c1)ncn2C.O=C(O)C(F)(F)F [Example 70, N-(4-((7-fluoro-1-methyl-1H-benzo[d]imidazol-5-yl)oxy)-3-methylphenyl)-6-morpholinopyrimido[5,4-d]pyrimidin-4-amine 2,2,2-trifluoroacetate] | 4.9 | ≥ 10000 | 1.8 | 1 | ≥ 5000 |  | 70.3 |  |  | 106 |  |  |
| Cc1cc(Nc2ncnc3cnc(N4CCO[C@@H](C)C4)nc23)ccc1Oc1ccc2c(c1)ncn2C.O=C(O)C(F)(F)F [Example 74, (S)—N-(3-methyl-4-((1-methyl-1H-benzo[d]imidazol-5-yl)oxy)phenyl)-6-(2-methylmorpholino)pyrimido[5,4-d]pyrimidin-4-amine 2,2,2-trifluoroacetate] | 14.6 | 3720 |  |  | ≥ 5000 |  | 35.5 |  |  | 33 | 1.7 | 1.3 |
| Cc1cc(Nc2ncnc3cnc(N4CC5CC4CO5)nc23)ccc1Oc1ccc2c(c1)ncn2C.O=C(O)C(F)(F)F (stereo not shown) [Example 77, 6-(2-oxa-5-azabicyclo[2.2.1]heptan-5-yl)-N-(3-methyl-4-((1-methyl-1H-benzo[d]imidazol-5-yl)oxy)phenyl)pyrimido[5,4-d]pyrimidin-4-amine 2,2,2-trifluoroacetate] | 17.2 | ≥ 10000 | 1.7 | 1.9 | ≥ 5000 |  | 48.9 |  |  | 26 |  |  |
| Cc1cc(Nc2ncnc3cnc(N4CCO[C@@H]5C[C@@H]54)nc23)ccc1Oc1ccc2c(c1)ncn2C [Example 199, 6-((1R,6S)-2-oxa-5-azabicyclo[4.1.0]heptan-5-yl)-N-(3-methyl-4-((1-methyl-1H-benzo[d]imidazol-5-yl)oxy)phenyl)pyrimido[5,4-d]pyrimidin-4-amine] | 17.9 | 5680 | 1.9 | 1.4 | ≥ 5000 | 16.1 |  |  |  |  |  |  |
